Laboratory results: the supplement of paper PMC10331698
± gives the standard deviation of the averaged measurements.

Key:
[1] = compound: O=P(O)(O)CCC(F)(F)C(F)(F)C(F)(F)C(F)(F)C(F)(F)C(F)(F)F [2-(Perfluorohexyl)ethylphosphonic acid]; assay: level (log10 ratio to DMSO vehicle control); higher = higher biomarker level / cell amount than vehicle control; conditions: in DMSO
Protocol: (§1)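 BioMAP Diversity Plus panel of 12 human primary cell co-culture systems (3C, 4H, LPS, SAg, BT, BF4T, BE3C, CASM3C, HDF3CGF, KF3CT, MyoF, Mphg). Compounds were added 1 h before stimulation and left for 24 h (MyoF 48 h; BT 72 h for soluble read-outs or 6 d for IgG). Biomarkers were read by ELISA, cytotoxicity by SRB, PBMC viability and proliferation by Alamar Blue. Each well value was divided by the mean of 8 DMSO control wells on the same plate and log10 transformed; duplicate blinded samples were tested at 4 concentrations.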

[2] = compound: OCC(F)(F)C(F)(F)C(F)(F)C(F)(F)C(F)(F)C(F)(F)C(F)(F)C(F)(F)CO [1H,1H,10H,10H-Perfluorodecane-1,10-diol]; assay: as above; conditions: in DMSO
Protocol: as §1

Row | Test System | level (log10) ([1]; 6700 nM) | level (log10) ([1]; 20000 nM) | level (log10) ([1]; 60000 nM) | level (log10) ([2]; 6700 nM) | level (log10) ([2]; 20000 nM) | level (log10) ([2]; 60000 nM)
1 | CASM3C:PAI-I | -0.0075 ± 0.00071 | -0.0055 ± 0.005 | 0.007 ± 0.013 | -0.0095 ± 0.0035 | -0.011 ± 0.0042 | -0.01
2 | KF3CT:MMP-9 | -0.0305 ± 0.012 | -0.024 ± 0.0071 | -0.0565 ± 0.026 | 0.005 ± 0.03 | 0.0465 ± 0.00071 | -0.197
3 | BE3C:SRB | -0.01 ± 0.0042 | -0.001 ± 0.0085 | 0.001 ± 0.02 | -0.003 | -0.0105 ± 0.00071 | -0.024
4 | KF3CT:CXCL10/IP-10 | -0.009 ± 0.0057 | 0.0035 ± 0.0078 | 0.0045 ± 0.005 | -0.006 ± 0.0042 | -0.0195 ± 0.0078 | -0.104
5 | HDF3CGF:CD54/ICAM-1 | 0.045 ± 0.04 | 0.0145 ± 0.059 | 0.0065 ± 0.044 | 0.002 ± 0.027 | 0.005 ± 0.0028 | -0.753
6 | MyoF:bFGF | -0.0415 ± 0.011 | -0.0285 ± 0.00071 | -0.0255 ± 0.021 | -0.007 ± 0.011 | 0.0005 ± 0.00071 | 0.005
7 | lMphg:CD106/VCAM-1 | -0.001 ± 0.0028 | 0.006 ± 0.016 | -0.002 ± 0.038 | -0.008 ± 0.0014 | -0.0075 ± 0.029 | -0.802
8 | BE3C:MMP-1 | 0.002 ± 0.017 | 0.0005 ± 0.026 | 0.052 ± 0.075 | 0.054 ± 0.0071 | 0.103 ± 0.042 | 0.137
9 | KF3CT:PAI-I | -0.033 ± 0.037 | -0.0505 ± 0.028 | -0.039 ± 0.025 | -0.0015 ± 0.021 | 0.023 ± 0.018 | -0.341
10 | MyoF:PAI-I | -0.0305 ± 0.0092 | -0.0115 ± 0.0064 | 0.0005 ± 0.013 | -0.0155 ± 0.005 | -0.008 ± 0.0042 | -0.005
11 | 3C:CD141/Thrombomodulin | 0.01 ± 0.024 | 0.02 ± 0.051 | 0.0895 ± 0.044 | -0.027 ± 0.037 | -0.016 ± 0.0014 | 0.055
12 | lMphg:CD69 | -0.045 ± 0.042 | -0.0285 ± 0.023 | 0.0175 ± 0.053 | -0.003 ± 0.0099 | -0.019 ± 0.033 | -0.348
13 | MyoF:TIMP-1 | -0.035 ± 0.017 | 0.013 ± 0.0042 | 0.028 ± 0.023 | 0.03 ± 0.031 | 0.078 ± 0.04 | 0.052
14 | HDF3CGF:Proliferation 72hr | -0.009 ± 0.068 | 0.119 ± 0.021 | 0.191 ± 0.03 | -0.0305 ± 0.046 | -0.112 ± 0.05 | -1.01
15 | CASM3C:Serum Amyloid A | 0.004 ± 0.023 | -0.0045 ± 0.0035 | 0.0235 ± 0.0092 | -0.011 ± 0.0042 | -0.016 ± 0.0057 | -0.059
16 | MyoF:SRB | -0.0075 ± 0.011 | -0.004 ± 0.0071 | -0.007 ± 0.0057 | -0.012 | -0.019 ± 0.017 | -0.098
17 | 3C:CD106/VCAM-1 | -0.012 ± 0.03 | -0.004 ± 0.025 | 0.0055 ± 0.061 | -0.023 ± 0.0071 | -0.0225 ± 0.0021 | -0.052
18 | MyoF:Collagen I | -0.0025 ± 0.005 | -0.0045 ± 0.0021 | 0.0085 ± 0.011 | -0.0105 ± 0.015 | -0.0275 ± 0.013 | -0.109
19 | HDF3CGF:PAI-I | -0.027 ± 0.023 | -0.027 ± 0.0014 | -0.0925 ± 0.021 | -0.0005 ± 0.0035 | 0.007 ± 0.0014 | -0.564
20 | lMphg:IL-1alpha | -0.0265 ± 0.021 | -0.029 ± 0.024 | 0.0075 ± 0.084 | 0.002 ± 0.028 | 0.0055 ± 0.046 | -0.167

Row | Test System | level (log10) ([1]; 6700 nM) | level (log10) ([1]; 20000 nM) | level (log10) ([1]; 60000 nM) | level (log10) ([2]; 6700 nM) | level (log10) ([2]; 20000 nM) | level (log10) ([2]; 60000 nM)
21 | HDF3CGF:MMP-1 | 0.006 ± 0.0071 | -0.0095 ± 0.013 | -0.0045 ± 0.067 | 0.0025 ± 0.00071 | 0.005 ± 0.018 | -0.299
22 | CASM3C:CD87/uPAR | -0.0295 ± 0.022 | -0.025 ± 0.014 | -0.002 ± 0.0071 | -0.024 ± 0.016 | -0.033 ± 0.031 | -0.116
23 | CASM3C:HLA-DR | 0.0045 ± 0.015 | 0.015 ± 0.023 | 0.0345 ± 0.046 | -0.0185 ± 0.0078 | -0.0275 ± 0.0064 | -0.065
24 | HDF3CGF:CXCL9/MIG | -0.003 ± 0.0099 | 0.008 ± 0.017 | -0.006 ± 0.0057 | 0.012 ± 0.013 | -0.037 ± 0.014 | -0.789
25 | HDF3CGF:CXCL8/IL-8 | -0.005 ± 0.0042 | -0.0125 ± 0.00071 | 0.012 ± 0.0071 | 0.004 ± 0.013 | -0.0055 ± 0.021 | -0.081
26 | BE3C:MMP-9 | -0.019 ± 0.0042 | -0.0135 ± 0.012 | 0.007 ± 0.034 | 0 ± 0.0071 | -0.041 ± 0.0042 | -0.14
27 | CASM3C:CD142/Tissue Factor | -0.0165 ± 0.0064 | -0.007 ± 0.014 | -0.033 ± 0.0071 | -0.0275 ± 0.015 | -0.02 ± 0.0042 | -0.033
28 | MyoF:Collagen III | 0.003 ± 0.0042 | 0.009 ± 0.0014 | -0.009 ± 0.031 | -0.0305 ± 0.0092 | -0.042 ± 0.0099 | -0.378
29 | 3C:CD62E/E-Selectin | -0.0115 ± 0.0078 | 0 ± 0.0085 | -0.001 ± 0.024 | -0.0065 ± 0.005 | -0.0275 ± 0.0092 | -0.082
30 | KF3CT:uPA | 0.007 ± 0.0057 | 0.013 ± 0.011 | 0.015 ± 0.02 | 0.007 ± 0.0042 | 0.009 ± 0.0071 | -0.021
31 | HDF3CGF:TIMP-1 | -0.0115 ± 0.018 | 0.0035 ± 0.005 | 0.0545 ± 0.06 | 0.0025 ± 0.0078 | 0.0135 ± 0.0092 | -0.307
32 | MyoF:Collagen IV | -0.038 ± 0.0071 | -0.019 ± 0.03 | -0.0405 ± 0.0021 | -0.0265 ± 0.0035 | -0.013 ± 0.0071 | 0.156
33 | 3C:CD142/Tissue Factor | 0.0325 ± 0.0078 | 0.04 ± 0.035 | 0.119 ± 0.0021 | -0.0585 ± 0.028 | -0.0685 ± 0.032 | -0.107
34 | KF3CT:CXCL8/IL-8 | -0.021 ± 0.0071 | 0.002 ± 0.0014 | 0.0355 ± 0.0035 | -0.006 ± 0.021 | 0.0055 ± 0.028 | -0.097
35 | lMphg:SRB-Mphg | -0.029 ± 0.023 | -0.0255 ± 0.026 | -0.0125 ± 0.032 | 0.003 ± 0.028 | -0.0625 ± 0.084 | -0.775
36 | BE3C:Keratin 8/18 | -0.012 ± 0.0071 | -0.0175 ± 0.0021 | 0.0115 ± 0.03 | -0.034 ± 0.0085 | -0.027 ± 0.0085 | -0.016
37 | HDF3CGF:CXCL11/I-TAC | -0.005 | 0.0325 ± 0.0021 | 0.0425 ± 0.021 | 0.013 ± 0.0042 | -0.031 ± 0.025 | -0.497
38 | lMphg:CD62E/E-Selectin | -0.015 ± 0.013 | -0.017 ± 0.0042 | 0.075 ± 0.0085 | -0.0175 ± 0.005 | -0.102 ± 0.11 | -0.8
39 | CASM3C:Proliferation | -0.0385 ± 0.0064 | -0.05 ± 0.013 | -0.06 ± 0.0085 | -0.011 ± 0.021 | -0.0215 ± 0.00071 | -0.324
40 | lMphg:CCL3/MIP-1alpha | 0.035 ± 0.044 | 0.019 ± 0.028 | 0.0315 ± 0.019 | -0.0375 ± 0.005 | -0.02 ± 0.016 | -0.473
